Like-named read-outs stand apart in the source and are kept apart here. Marks after values point to notes of the source that are not given here.
How the values were obtained:
[1] = target: T1, hHCN1 (Homo sapiens, UniProt O60741); test: Determination of Ih channel inhibition, time-dependent current in HEK.hHCN1.2H10 cells; assay type: cell-based; conditions: holding potential −40 mV
T1 construct: expressed in transfected cells; host or cells: HEK cells, clone HEK.hHCN1.2H10
T1 sequence (O60741 1-890): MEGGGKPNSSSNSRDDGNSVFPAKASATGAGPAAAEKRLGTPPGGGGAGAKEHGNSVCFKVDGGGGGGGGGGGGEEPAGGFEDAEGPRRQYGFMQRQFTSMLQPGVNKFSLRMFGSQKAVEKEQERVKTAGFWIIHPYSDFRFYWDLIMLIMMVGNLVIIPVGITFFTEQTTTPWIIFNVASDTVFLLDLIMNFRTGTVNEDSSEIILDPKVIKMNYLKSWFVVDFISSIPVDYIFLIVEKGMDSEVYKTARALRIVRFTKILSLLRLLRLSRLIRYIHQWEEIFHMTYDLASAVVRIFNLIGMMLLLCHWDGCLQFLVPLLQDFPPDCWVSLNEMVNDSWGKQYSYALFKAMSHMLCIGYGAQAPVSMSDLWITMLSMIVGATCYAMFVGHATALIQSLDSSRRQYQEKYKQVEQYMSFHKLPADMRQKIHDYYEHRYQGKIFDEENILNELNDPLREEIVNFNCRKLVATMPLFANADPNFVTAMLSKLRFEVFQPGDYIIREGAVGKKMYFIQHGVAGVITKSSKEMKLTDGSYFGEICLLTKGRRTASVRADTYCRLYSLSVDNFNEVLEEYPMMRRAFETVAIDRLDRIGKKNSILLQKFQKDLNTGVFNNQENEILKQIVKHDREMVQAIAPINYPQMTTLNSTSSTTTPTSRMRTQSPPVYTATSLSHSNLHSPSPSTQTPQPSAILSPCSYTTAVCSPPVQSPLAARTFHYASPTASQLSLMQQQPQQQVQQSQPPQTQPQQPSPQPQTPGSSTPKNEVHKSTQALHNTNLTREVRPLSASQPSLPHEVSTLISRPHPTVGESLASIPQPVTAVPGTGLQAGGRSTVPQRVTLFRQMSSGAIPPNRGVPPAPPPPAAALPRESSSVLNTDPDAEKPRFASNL
Description: Methods: HEK.hHCN1.2H10 cells growing in culture were dissociated using CDS to lift the cells. They were suspended in high K external solution and used in the assay at a density of 2×10^6 cells.ml^−1. Two separate runs were performed with voltage steps to −80 mV and […] for 1 s; the holding potential in both cases was −40 mV. The amplitude of the time-dependent current (assumed to be all hHCN1) was measured as the difference between the current recorded immediately after the capacity transient on stepping to the test voltage and the current measured after it had reached a steady state amplitude (PeakAmp metric). The amount of inhibition was assessed by calculating the ratio of Post Compound PeakAmp/Pre Compound PeakAmp. Thus a ratio of 1 would indicate no inhibition and 0 would indicate 100% inhibition. Compounds were tested at concentrations between 0.152 μM and 333.3 μM, and a dose-response curve constructed. The IC50 value was obtained (the concentration causing half maximal inhibition) and the pIC50 calculated (the negative logarithm of the molar concentration causing half-maximal inhibition).

[2] = system: sleep-wake organisation in the rat; test: Effect of Ih channel inhibition on sleep-wake organisation in rats (ACSO, EEG/EMG/movement); assay type: in vivo
Description: Methods: Sleep-wake organization was evaluated in instrumented male rats held on a 12:12 light-dark cycle. Classification of sleep-wake states was measured using an automated system (ACSO, Automatic Classification of Sleep Organization)^[i,ii] that records and processes EEG (cortical), EMG (neck muscle) and movement signals. Subjects were assigned to placebo, Org 34167 or ivabradine treatment groups and signals were recorded on two successive days. The first recording session provided a baseline recording following treatment with placebo only. This baseline day was used to extract a sleep classification algorithm for each individual subject. On the second day recording was started immediately after administration of placebo, Org 34167 (i.p.) or ivabradine (s.c.). Treatments were administered 2.5-3.0 h after lights-on. Data analysis and statistics: EEG, EMG and movement signals were used to classify every 2 second epoch into 6 different sleep stages using the algorithm derived for each individual subject from the baseline day recording. Six sleep-wake states were discriminated—Active waking (AW), Passive waking (PW), Light sleep (LS), Deep sleep (DS), Intermediate sleep (IS) and Rapid Eye Movement sleep (REM). Subsets of the six sleep-wake states were also combined to give Waking (PW and AW), Sleep (IS, REM, LS and DS) and NREM (LS and DS). For each treatment group, the median percentage of time spent in each sleep or waking state were calculated in 3 hour time intervals after drug injection. Significance was calculated by means of the two-sided rank sum test (Mann-Whitney test; P<0.025).

[3] = system: Ih channel; test: Ih channel inhibition, statement without method
[4] = 0.3 mg/kg i.p., 0-3 h, lights on
[5] = 0.3 mg/kg i.p., 3-6 h, lights on
[6] = 0.3 mg/kg i.p., 6-9 h, lights on
[7] = 0.3 mg/kg i.p., 9-12 h, lights off
[8] = 1 mg/kg i.p., 9-12 h, lights off
[9] = 5 mg/kg s.c., 9-12 h, lights off
[10] = 15 mg/kg s.c., 0-3 h, lights on
[11] = 15 mg/kg s.c., 3-6 h, lights on
[12] = 15 mg/kg s.c., 6-9 h, lights on
[13] = 15 mg/kg s.c., 9-12 h, lights off
[14] = 50 mg/kg s.c., 0-3 h, lights on
[15] = 50 mg/kg s.c., 3-6 h, lights on
[16] = 50 mg/kg s.c., 6-9 h, lights on
[17] = 50 mg/kg s.c., 9-12 h, lights off

For `C=CC[C@H](N)c1ccccc1-c1noc2ccccc12.Cl` [Org 34167, (S)-2-(1,2-benzisoxazol-3-yl)-α-2-propenylbenzenemethanamine hydrochloride], the IC50 ([1]; voltage step to −80 mV for 1 s, read-out: IC50 μM −80 mV) was 3.2 µM, the IC50 ([1]; voltage step to −120 mV for 1 s, read-out: IC50 μM −120 mV) was 8.6 µM and the “median percentage of time spent in NREM” value [2, 4] was 46.4* %. For the same compound, the “median percentage of time spent in Sleep” value [2, 4] was 54.1* %, the “median percentage of time spent in Waking” value [2, 4] was 45.9* % and the “median percentage of time spent in NREM” value [2, 5] was 63.5%. For the same compound, the “median percentage of time spent in Sleep” value [2, 5] was 80.4%, the “median percentage of time spent in Waking” value [2, 5] was 19.6% and the “median percentage of time spent in NREM” value [2, 6] was 63.8%. For the same compound, the “median percentage of time spent in Sleep” value [2, 6] was 77.9%, the “median percentage of time spent in Waking” value [2, 6] was 22.1% and the “median percentage of time spent in NREM” value [2, 7] was 40.9%. For the same compound, the “median percentage of time spent in Sleep” value [2, 7] was 47.3%, the “median percentage of time spent in Waking” value [2, 7] was 52.7% and the “median percentage of time spent in NREM” value ([2]; 1 mg/kg i.p., 0-3 h, lights on) was 7.6* %. The “median percentage of time spent in Sleep” value ([2]; 1 mg/kg i.p., 0-3 h, lights on) was 7.6* %, the “median percentage of time spent in Waking” value ([2]; 1 mg/kg i.p., 0-3 h, lights on) was 92.4* % and the “median percentage of time spent in NREM” value ([2]; 1 mg/kg i.p., 3-6 h, lights on) was 59.1* %. The “median percentage of time spent in Sleep” value ([2]; 1 mg/kg i.p., 3-6 h, lights on) was 64.2* %, the “median percentage of time spent in Waking” value ([2]; 1 mg/kg i.p., 3-6 h, lights on) was 35.8* % and the “median percentage of time spent in NREM” value ([2]; 1 mg/kg i.p., 6-9 h, lights on) was 63.9* %. For the same compound, the “median percentage of time spent in Sleep” value ([2]; 1 mg/kg i.p., 6-9 h, lights on) was 81.2%, the “median percentage of time spent in Waking” value ([2]; 1 mg/kg i.p., 6-9 h, lights on) was 18.8% and the “median percentage of time spent in NREM” value [2, 8] was 42.1%. The “median percentage of time spent in Sleep” value [2, 8] was 51.8%, the “median percentage of time spent in Waking” value [2, 8] was 48.2% and the “effect on waking and sleep compared to placebo” value ([2]; Org 34167 i.p., first 3-6 hours of the session) was “dose dependently increased waking and decreased sleep”.
`COc1cc2c(cc1OC)CC(=O)N(CCCN(C)C[C@H]1Cc3cc(OC)c(OC)cc31)CC2.Cl` [ivabradine, (+)-3-[3-[N-[4,5-dimethoxybenzocyclobutan-1-(S)-ylmethyl]-N-methylamino]propyl]-7,8-dimethoxy-2,3,4,5-tetrahydro-1H-3-benzazepin-2-one hydrochloride] was tested, and the “median percentage of time spent in NREM” value ([2]; 5 mg/kg s.c., 0-3 h, lights on) was 49.5%, the “median percentage of time spent in Sleep” value ([2]; 5 mg/kg s.c., 0-3 h, lights on) was 58.2% and the “median percentage of time spent in Waking” value ([2]; 5 mg/kg s.c., 0-3 h, lights on) was 41.8%. For the same compound, the “median percentage of time spent in NREM” value ([2]; 5 mg/kg s.c., 3-6 h, lights on) was 68.9%, the “median percentage of time spent in Sleep” value ([2]; 5 mg/kg s.c., 3-6 h, lights on) was 84.8% and the “median percentage of time spent in Waking” value ([2]; 5 mg/kg s.c., 3-6 h, lights on) was 15.2%. The “median percentage of time spent in NREM” value ([2]; 5 mg/kg s.c., 6-9 h, lights on) was 56.2%, the “median percentage of time spent in Sleep” value ([2]; 5 mg/kg s.c., 6-9 h, lights on) was 72.9% and the “median percentage of time spent in Waking” value ([2]; 5 mg/kg s.c., 6-9 h, lights on) was 27.1%. The “median percentage of time spent in NREM” value [2, 9] was 39.5%, the “median percentage of time spent in Sleep” value [2, 9] was 50.4% and the “median percentage of time spent in Waking” value [2, 9] was 49.6%. For the same compound, the “median percentage of time spent in NREM” value [2, 10] was 53.2%, the “median percentage of time spent in Sleep” value [2, 10] was 60.1* % and the “median percentage of time spent in Waking” value [2, 10] was 39.9* %. The “median percentage of time spent in NREM” value [2, 11] was 65.8%, the “median percentage of time spent in Sleep” value [2, 11] was 83.0% and the “median percentage of time spent in Waking” value [2, 11] was 17.0%. For the same compound, the “median percentage of time spent in NREM” value [2, 12] was 60.0%, the “median percentage of time spent in Sleep” value [2, 12] was 72.5% and the “median percentage of time spent in Waking” value [2, 12] was 27.5%. The “median percentage of time spent in NREM” value [2, 13] was 37.4%, the “median percentage of time spent in Sleep” value [2, 13] was 45.2% and the “median percentage of time spent in Waking” value [2, 13] was 54.8%. For the same compound, the “median percentage of time spent in NREM” value [2, 14] was 41.4%, the “median percentage of time spent in Sleep” value [2, 14] was 42.2* % and the “median percentage of time spent in Waking” value [2, 14] was 57.8* %. The “median percentage of time spent in NREM” value [2, 15] was 63.2%, the “median percentage of time spent in Sleep” value [2, 15] was 80.4% and the “median percentage of time spent in Waking” value [2, 15] was 19.6%. For the same compound, the “median percentage of time spent in NREM” value [2, 16] was 65.0%, the “median percentage of time spent in Sleep” value [2, 16] was 81.0% and the “median percentage of time spent in Waking” value [2, 16] was 19.0%. For the same compound, the “median percentage of time spent in NREM” value [2, 17] was 45.8* %, the “median percentage of time spent in Sleep” value [2, 17] was 57.9* % and the “median percentage of time spent in Waking” value [2, 17] was 42.1* %. The “effect on waking and sleep compared to placebo” value ([2]; ivabradine s.c., first 3 hours of the session) was “dose dependently increased waking and decreased sleep”.
`NC(=O)C[S+]([O-])C(c1ccccc1)c1ccccc1` (centres unmarked) [modafanil] was tested, and the “Ih channel inhibitor or not” value [3] was “not to be an Ih channel inhibitor”.

From US20110092486A1, “IH CHANNEL INHIBITORS FOR THE PROMOTION OF WAKEFULNESS” (priority 2006, published 2011)
